Measured values reported in PubChem BioAssay AID248 (DTP/NCI, 2004).
Values joined by “and” are separate entries in the source; they are usually repeats but may differ in a detail not shown here. Identical values can stand only once. Toxic doses and inconclusive results are not listed. No stated cut-off is given here; in the data, active means T/C of 150% or more; inactive means T/C below 125%.

System: L1210 leukemia ip in BDF1 mice, survival T/C
Assay: NCI In Vivo Anticancer Drug Screen. Data for tumor model L1210 Leukemia (intraperitoneal) in B6D2F1 (BDF1) mice
Conditions: endpoint: mean survival time, higher = longer survival
In short: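 Tumor cells were implanted, animals were treated, and survival was followed. The result divides the treated measurement by the vehicle-control measurement.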

[1] = dose: 100.0 mg/kg/injection, schedule: Q01DX001 (ip), vehicle: carboxymethylcellulose (CMC)
[2] = dose: 100.0 mg/kg/injection, schedule: Q01DX009 (ip), vehicle: saline
[3] = dose: 100.0 mg/kg/injection, schedule: Q04DX002 (ip), vehicle: saline
[4] = dose: 200.0 mg/kg/injection, schedule: Q01DX001 (ip), vehicle: carboxymethylcellulose (CMC)
[5] = dose: 200.0 mg/kg/injection, schedule: Q01DX009 (ip), vehicle: saline
[6] = dose: 200.0 mg/kg/injection, schedule: Q04DX002 (ip), vehicle: saline
[7] = dose: 400.0 mg/kg/injection, schedule: Q01DX001 (ip), vehicle: carboxymethylcellulose (CMC)
[8] = dose: 100.0 mg/kg/injection, schedule: Q04DX003 (ip), vehicle: Klucel (hydroxypropylcellulose) (HPC)
[9] = dose: 200.0 mg/kg/injection, schedule: Q04DX003 (ip), vehicle: Klucel (hydroxypropylcellulose) (HPC)
[10] = dose: 400.0 mg/kg/injection, schedule: Q04DX003 (ip), vehicle: Klucel (hydroxypropylcellulose) (HPC)
[11] = dose: 100.0 mg/kg/injection, schedule: Q01DX009 (ip), vehicle: saline with Tween-80
[12] = dose: 100.0 mg/kg/injection, schedule: Q04DX003 (ip), vehicle: saline with Tween-80
[13] = dose: 200.0 mg/kg/injection, schedule: Q04DX003 (ip), vehicle: saline with Tween-80
[14] = dose: 400.0 mg/kg/injection, schedule: Q04DX003 (ip), vehicle: saline with Tween-80
[15] = dose: 100.0 mg/kg/injection, schedule: Q01DX001 (ip), vehicle: saline
[16] = dose: 200.0 mg/kg/injection, schedule: Q01DX001 (ip), vehicle: saline
[17] = dose: 400.0 mg/kg/injection, schedule: Q01DX001 (ip), vehicle: saline
[18] = dose: 200.0 mg/kg/injection, schedule: Q01DX009 (ip), vehicle: saline with Tween-80
[19] = dose: 400.0 mg/kg/injection, schedule: Q01DX009 (ip), vehicle: saline with Tween-80

Measured: T/C

C[N+]1(CCCl)CC[N+](C)(CCCl)CC1 (stereo not given)
inactive: [1] 101 % of control | dose: 100.0 mg/kg/injection, schedule: Q01DX009 (ip), vehicle: carboxymethylcellulose (CMC) 97 % of control and 92 % of control | [2] 97 % of control | dose: 100.0 mg/kg/injection, schedule: Q04DX002 (ip), vehicle: carboxymethylcellulose (CMC) 97 % of control | [3] 112 % of control | dose: 100.0 mg/kg/injection, schedule: Q04DX003 (ip), vehicle: carboxymethylcellulose (CMC) 97 % of control | [4] 105 % of control | dose: 200.0 mg/kg/injection, schedule: Q01DX009 (ip), vehicle: carboxymethylcellulose (CMC) 97 % of control and 100 % of control | [5] 101 % of control | dose: 200.0 mg/kg/injection, schedule: Q04DX002 (ip), vehicle: carboxymethylcellulose (CMC) 100 % of control and 103 % of control | [6] 105 % of control | dose: 200.0 mg/kg/injection, schedule: Q04DX003 (ip), vehicle: carboxymethylcellulose (CMC) 100 % of control | [7] 97 % of control | dose: 400.0 mg/kg/injection, schedule: Q01DX009 (ip), vehicle: carboxymethylcellulose (CMC) 101 % of control and 91 % of control | dose: 400.0 mg/kg/injection, schedule: Q01DX009 (ip), vehicle: saline 101 % of control | dose: 400.0 mg/kg/injection, schedule: Q04DX002 (ip), vehicle: carboxymethylcellulose (CMC) 93 % of control | dose: 400.0 mg/kg/injection, schedule: Q04DX003 (ip), vehicle: carboxymethylcellulose (CMC) 103 % of control

O=C1OC2(CCCCC2)c2ccccc21
inactive: [8] 105 % of control | [9] 95 % of control | [10] 105 % of control

COC(=O)c1cn(/C=C/c2ccccc2)cn1
inactive: dose: 87.5 mg/kg/injection, schedule: Q04DX003 (ip), vehicle: Klucel (hydroxypropylcellulose) (HPC) 94 % of control | dose: 175.0 mg/kg/injection, schedule: Q04DX003 (ip), vehicle: Klucel (hydroxypropylcellulose) (HPC) 89 % of control | dose: 350.0 mg/kg/injection, schedule: Q04DX003 (ip), vehicle: Klucel (hydroxypropylcellulose) (HPC) 97 % of control

CC(C)(CBr)COS(=O)(=O)c1ccc(Br)cc1
inactive: dose: 50.0 mg/kg/injection, schedule: Q01DX009 (ip), vehicle: saline with Tween-80 89 % of control | [11] 91 % of control

O=C1c2ccccc2C(=O)c2c1ccc1c(S(=O)(=O)Cl)cccc21
inactive: [3] 122 % of control | [6] 97 % of control | dose: 400.0 mg/kg/injection, schedule: Q04DX002 (ip), vehicle: saline 94 % of control

O=Cc1ccc(/C=C2\C=Cc3ccccc32)cc1
inactive: [12] 93 % of control | [13] 91 % of control | [14] 92 % of control

O=C(CCC(=O)OCCBr)OCCBr
inactive: [8] 110 % of control | [9] 102 % of control

Oc1cccc(N=Cc2ccccc2O)c1
inactive: dose: 100.0 mg/kg/injection, schedule: Q01DX001 (ip), vehicle: Klucel (hydroxypropylcellulose) (HPC) 102 % of control | [15] 97 % of control | dose: 200.0 mg/kg/injection, schedule: Q01DX001 (ip), vehicle: Klucel (hydroxypropylcellulose) (HPC) 96 % of control | [16] 100 % of control | dose: 400.0 mg/kg/injection, schedule: Q01DX001 (ip), vehicle: Klucel (hydroxypropylcellulose) (HPC) 101 % of control | [17] 105 % of control

N#CCC[N+]1([O-])CCCC1C(=O)O (stereo not given)
inactive: [15] 103 % of control | [16] 101 % of control | [17] 103 % of control

CCCCCCCN1CCC(C(=O)CC)(c2cccc(O)c2)CC1
inactive: dose: 12.5 mg/kg/injection, schedule: Q01DX009 (ip), vehicle: Klucel (hydroxypropylcellulose) (HPC) 106 % of control | dose: 25.0 mg/kg/injection, schedule: Q01DX009 (ip), vehicle: Klucel (hydroxypropylcellulose) (HPC) 98 % of control | dose: 50.0 mg/kg/injection, schedule: Q01DX009 (ip), vehicle: Klucel (hydroxypropylcellulose) (HPC) 93 % of control and 87 % of control | dose: 100.0 mg/kg/injection, schedule: Q04DX002 (ip), vehicle: Klucel (hydroxypropylcellulose) (HPC) 93 % of control

Nc1nc2ncc(CNc3ccc(C(=O)NC(CCC(=O)O)C(=O)O)s3)nc2c(=O)[nH]1 (stereo not given)
inactive: [15] 95 % of control | [16] 101 % of control and 95 % of control | [17] 93 % of control and 90 % of control

CCOC(=O)NC(C)(C)CN(CCO)C(=O)OCC
inactive: dose: 100.0 mg/kg/injection, schedule: Q01DX009 (ip), vehicle: Klucel (hydroxypropylcellulose) (HPC) 100 % of control | [8] 105 % of control | dose: 200.0 mg/kg/injection, schedule: Q01DX009 (ip), vehicle: Klucel (hydroxypropylcellulose) (HPC) 97 % of control | [9] 102 % of control | dose: 400.0 mg/kg/injection, schedule: Q01DX009 (ip), vehicle: Klucel (hydroxypropylcellulose) (HPC) 97 % of control | [10] 93 % of control

C=NNc1nc2ccccc2s1
inactive: dose: 100.0 mg/kg/injection, schedule: Q04DX003 (ip), vehicle: gum acacia 96 % of control | dose: 200.0 mg/kg/injection, schedule: Q04DX003 (ip), vehicle: gum acacia 88 % of control

COc1cc(/C=C2\NC(=O)NC2=O)ccc1O
inactive: [18] 86 % of control | [19] 90 % of control

O=C(O)CC[S-].[Ag+]
inactive: dose: 50.0 mg/kg/injection, schedule: Q04DX003 (ip), vehicle: other 94 % of control | dose: 75.0 mg/kg/injection, schedule: Q01DX009 (ip), vehicle: other 98 % of control | dose: 100.0 mg/kg/injection, schedule: Q01DX001 (ip), vehicle: other 91 % of control | dose: 100.0 mg/kg/injection, schedule: Q04DX003 (ip), vehicle: other 89 % of control | dose: 150.0 mg/kg/injection, schedule: Q01DX009 (ip), vehicle: other 98 % of control | dose: 200.0 mg/kg/injection, schedule: Q01DX001 (ip), vehicle: other 91 % of control | dose: 200.0 mg/kg/injection, schedule: Q04DX003 (ip), vehicle: other 91 % of control | dose: 300.0 mg/kg/injection, schedule: Q01DX009 (ip), vehicle: other 109 % of control

O=C(O)C(CCl)(CCl)CCl
inactive: dose: 50.0 mg/kg/injection, schedule: Q01DX009 (ip), vehicle: saline 106 % of control | [2] 98 % of control | [5] 95 % of control

Cc1ccc(N2C(=O)CCC2=O)c(C)c1
inactive: dose: 50.0 mg/kg/injection, schedule: Q01DX001 (ip), vehicle: carboxymethylcellulose (CMC) 104 % of control | [1] 98 % of control | [4] 102 % of control | [7] 98 % of control

CC1=CC=CC(=O)C1(C)C(Cl)Cl (stereo not given)
inactive: [11] 91 % of control | [12] 97 % of control | [18] 104 % of control | [13] 108 % of control | [19] 109 % of control | [14] 94 % of control

O=C(c1ccccc1)c1nc2ccccc2s1
inactive: dose: 12.5 mg/kg/injection, schedule: Q01DX005 (ip), vehicle: other 94 % of control | dose: 25.0 mg/kg/injection, schedule: Q01DX005 (ip), vehicle: other 90 % of control | dose: 50.0 mg/kg/injection, schedule: Q01DX005 (ip), vehicle: other 89 % of control | dose: 100.0 mg/kg/injection, schedule: Q01DX005 (ip), vehicle: other 89 % of control | dose: 200.0 mg/kg/injection, schedule: Q01DX005 (ip), vehicle: other 89 % of control
